pIC50: −log10 of the molar value.
Key:
NCI-H1975 cells = test: 3D cell proliferation assay; assay type: cell-based; conditions: Homo sapiens, ultra low attachment plate, 96 hours, 3D CTG
Experimental: This assay supports the molecular mode of action of compounds. Low IC50 values are indicative of high potency of the SOS1 inhibition. […] This supports the molecular mode of action of the SOS1 inhibitors as selectively targeting cancer cells dependent on receptor tyrosine kinase-RAS/SOS1-family protein function. Cell proliferation assays were performed in three-dimensional (3D) anchorage-independent conditions in 96 well ultra-low attachment plate with the following human cell lines:
NCI-H1975: human non-small cell lung cancer (NSCLC) with wild type KRAS and EGFR L858R/T790M mutation;
Cell lines were purchased from the American Type Culture Collection (ATCC), NCI, or European Collection of Authenticated Cell Cultures (ECACC). All cell lines were maintained in RPMI-1640 or DMEM with 10% heat inactivated fetal bovine serum.
Cells growing in log phase were detached with Gibco™ TrypLE™ Express Enzyme and plated in 96 well ultra low attachment plate at 15000 to 20000 cells/well in 100 μl of media. After overnight incubation at 37° C. and 5% CO2, the cells were treated with compounds (50 μL/well) at the final concentrations spanning 1 nM to 20 μM. Cells were incubated at 37° C., 5% CO2 and 95% humidity incubator for 96 hours. At the end of incubation, a 3D CTG reagent from Promega was added to each well according to vendors recommendation and mixed for 10 minutes in dark. The luminescence signals were determined using Biotek plate reader. The data was fitted using a sigmoidal curve analysis program (GraphPAD Prism) with variable hill slope.

[1] = tested on: cellular pERK in NCI-H1975 cells (EGFR/L858R-T790M); test: pERK Potency Assay; assay type: cell-based; conditions: Homo sapiens, 1 hour incubation, Western blot, read-out: IC50 value, cellular pERK level
Description: The purpose of this assay is to measure the ability of test compounds to inhibit SOS1 function in cells. SOS1 activates RAS proteins by catalyzing the conversion of RAS-GDP to RAS-GTP in response to receptor tyrosine kinase activation. Activation of RAS induces a sequence of cellular signaling events that results in increased phosphorylation of ERK at Threonine 202 and Tyrosine 204 (pERK). The procedure described below measured the level of cellular pERK in response to test compounds in NCI-H1975 cells (EGFR/L858R-T790M).
NCI-H1975 cells were grown and maintained using media and procedures recommended by the ATCC. On the day prior to compound addition, cells were plated in 24-well cell culture plates (0.9 ml/well) and grown overnight in a 37° C., 5% CO2 incubator. Test compounds were prepared with 3-fold serial dilutions in DMSO, with a top concentration of 10 mM. On the day of the assay, 100 uL of each test compound diluted at 1:100 in media was added to each well of cell culture plate with final concentrations of the compound spanning 0.5 nM to 10 uM. After the compound was added, the cells were incubated for 1 hour at 37° C., 5% CO2. Following incubation, culture medium was removed, and the cells were washed once with phosphate buffered saline and lysed with lysis buffer (20 mM Tris-HCl, pH 7.5, 150 mM NaCl, 1 mM EDTA, 1 mM EGTA, 0.8% NP-40 plus 2× protease and phosphatase inhibitors). Cellular pERK level was determined using the Western blot analysis and quantified with Liqor software. Signal from Western blot was plotted and IC50 values were determined by fitting a 4-parameter sigmoidal concentration response model.

For `C#C[C@@H](Nc1nc(C)nc2cc(=O)n(C3(C)CCN(C(C)=O)CC3)cc12)c1cccc(C(F)(F)F)c1C` [Compound 33, (R)-6-(1-acetyl-4-methylpiperidin-4-yl)-2-methyl-4-((1-(2-methyl-3-(trifluoromethyl)phenyl)prop-2-yn-1-yl)amino)pyrido[4,3-d]pyrimidin-7(6H)-one], the pIC50 (NCI-H1975 cells) was > 7.00 and the pIC50 [1] was > 7.00.
